Experimental data published in patent publication US20060069132A1, “Azolecarboxamide herbicides” (priority 2004, published 2006).
Read-outs that look alike come from different tables or passages of the source.

Assays:
rice = experiment: Test B pre-/postemergence herbicide test; assay type: in vivo, Oryza sativa; details: for plant injury at 500 g/ha / plant injury at 125 g/ha: Oryza sativa, pre-emergence, 336 h; for plant injury at 500 g/ha / Plant response rating, Rice: 500 g ai/ha
How it was run: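 Formulation: non-phytotoxic solvent mix with surfactant. Timing: preemergence on seed and postemergence on 2–18 cm plants, applied concurrently. Readout after 13–15 d greenhouse: visual 0–100 control rating against controls.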

morningglory = experiment: Test C pre-/postemergence herbicide test; assay type: in vivo, Ipomoea coccinea; set-up: key to Plant response rating, Morningglory: 0 = no effect, 100 = complete control; details: for pest or weed control at 62 g/ha / pest or weed control at 125 g/ha / pest or weed control at 250 g/ha / pest or weed control at 500 g/ha: Ipomoea, pre-emergence, read-out: Plant response rating, Morningglory
How it was run: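 Pre- and postemergence application, solvent/surfactant formulation; post at 1- to 4-leaf stage (2–18 cm). Greenhouse 12–14 d. Visual rating vs controls, 0 = no effect, 100 = complete control.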

southern sandbur = experiment: Test E pre-/postemergence herbicide test; assay type: in vivo, Cenchrus echinatus
Source text: (§1) Seeds of plant species selected from bipinnate beggarticks (Bidens bipinnata L.), hairy beggarticks (Bidens radiata Thuill.), bermudagrass (Cynodon dactylon (L.) Pers.), Surinam grass (Urochloa decumbens (Staph) R. D. Webster, previously named Brachiaria decumbens Stapf), large crabgrass (Digitaria sanguinalis (L.) Scop.), green foxtail (Setaria viridis (L.) P. Beauv.), goosegrass (Eleusine indica (L.) Gaertn.), johnsongrass (Sorghum halepense (L.) Pers.), kochia (Kochia scoparia (L.) Schrad.), pitted morningglory (Ipomoea lacunosa L.), purple nutsedge (Cyperus rotundus L.), common ragweed (Ambrosia elatior L.), mustard (Brassica nigra (L.) W. D. J. Koch), guineagrass (Panicum maximum Jacq.), dallisgrass (Paspalum dilatatum Poir.), barnyardgrass (Echinochloa crus-galli (L). P. Beauv.), southern sandbur (Cenchrus echinatus L.), common sowthistle (Sonchus oleraceous L.), prickly sida (Sida spinosa L.), Italian ryegrass (Lolium multiflorum Lam.), common purslane (Portulaca oleracea L.), broadleaf signalgrass (Brachiaria platyphylla (Griseb.) Nash), common groundsel (Senecio vulgaris L.), common chickweed (Stellaria media (L.) Vill/Cyr.), tropical spiderwort (Commelina benghalensis L.), annual bluegrass (Poa annua L.), downy bromegrass (Bromus tectorum L.), itchgrass (Rottboellia cochinchinensis (L.) L.f.), quackgrass (Elytrigia repens (L.) Nevski), Canada horseweed (Erigeron Canadensis L.), field bindweed (Convolvulus arvensis L.), spotted spurge (Euphorbia maculata L.), common mallow (Malva sylvestris (=s silvestris) L.), and Russian thistle (Salsola kali L. ssp. Ruthenica (Iljin) Soo) were planted and treated preemergence with test chemicals formulated in a non-phytotoxic solvent mixture which included a surfactant.
(§2) At the same time, plants selected from these weed species were treated with postemergence applications of some of the test chemicals formulated in the same manner. Plants ranged in height from 2 to 18 cm (1- to 4-leaf stage) for postemergence treatments. Treated plants and controls were maintained in a greenhouse for 12 to 14 days, after which time all species were compared to controls and visually evaluated. Plant response ratings, summarized in Table E, are based on a scale of 0 to 100 where 0 is no effect and 100 is complete control. A dash (-) response means no test result.

field bindweed = experiment: Test E pre-/postemergence herbicide test; assay type: in vivo, Convolvulus arvensis
Source text: as §1, §2

chickweed = experiment: Test C postemergence herbicide test; assay type: in vivo, Stellaria media
How it was run: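 After a postemergence application at 1 to 4 leaves (plants 2–18 cm high), or at 2 leaves for barnyardgrass in flooded paddy, plants stayed in the greenhouse for 12 to 14 days. Damage was then judged visually relative to control plants, with 100 indicating complete control.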

[1] = 62 g ai/ha, preemergence, scale 0 to 100
[2] = 125 g ai/ha, scale 0 (no effect) to 100 (complete control), visual, 12 to 14 days
[3] = Preemergence, 500 g ai/ha, scale 0 to 100, 0 no effect, 100 complete control
[4] = Postemergence, 500 g ai/ha, scale 0 to 100
[5] = Postemergence, 250 g ai/ha, scale 0 to 100
[6] = Preemergence, 62 g ai/ha, scale 0 to 100
[7] = Preemergence, 125 g ai/ha, scale 0 to 100
[8] = Preemergence, 250 g ai/ha, scale 0 (no effect) to 100 (complete control)
[9] = Preemergence, 500 g ai/ha, scale 0 (no effect) to 100 (complete control)
[10] = postemergence, 125 g ai/ha, scale 0 to 100
[11] = postemergence, 62 g ai/ha, scale 0 to 100
[12] = 125 g ai/ha, scale 0 (no effect) to 100 (complete control), visual, 12 to 14 days, preemergence
[13] = 250 g ai/ha, scale 0-100, preemergence
[14] = 125 g ai/ha, 0 = no effect, 100 = complete control, read-out: Rice plant response rating (0 to 100 scale)
[15] = visual rating, 0 = no effect, 100 = complete control, read-out: Plant response rating, Rice
[16] = 500 g ai/ha, scale 0 to 100 (0 no effect, 100 complete control), visual, 12 to 14 days
[17] = 500 g ai/ha, scale 0 to 100 (0 no effect, 100 complete control), visual, 12 to 14 days, preemergence
[18] = Postemergence, 250 g ai/ha, scale 0 to 100, 0 no effect, 100 complete control

CCn1nc(C(C)(C)C)cc1C(=O)Nc1cc(C(=O)N(C)C)ccn1 [Compound 156, 2-[[[3-(1,1-dimethylethyl)-1-ethyl-1H-pyrazol-5-yl]carbonyl]amino]-N,N-dimethyl-4-pyridinecarboxamide]
plant injury at 500 g/ha (rice; visual rating 0-100, 0 no effect, 100 complete control, read-out: Plant response rating, Rice): 100% | plant injury at 125 g/ha (rice; preemergence, 125 g ai/ha, 0 to 100 scale, 0 is no effect, 100 is complete control, read-out: Plant response rating, Rice): 90% | pest or weed control at 62 g/ha (morningglory; [1]): 8% | pest or weed control at 125 g/ha (morningglory; [2]): 60% | Morningglory plant response rating (morningglory; [3]): 100 | Plant response rating, Sandbur (southern sandbur; [4]): 98 | Plant response rating, Sandbur (southern sandbur; [5]): 80 | Plant response rating, Sandbur (southern sandbur; [6]): 50 | Plant response rating, Sandbur (southern sandbur; [7]): 60 | Plant response rating, Sandbur (southern sandbur; [8]): 75 | Plant response rating, Sandbur (southern sandbur; [9]): 80 | Plant response rating, Sandbur (southern sandbur; [10]): 75 | Plant response rating, Sandbur (southern sandbur; [11]): 0 | Plant response rating, Bindweed, Field (field bindweed; [4]): 100 | Plant response rating, Bindweed, Field (field bindweed; [5]): 80 | Plant response rating, Bindweed, Field (field bindweed; [6]): 60 | Plant response rating, Bindweed, Field (field bindweed; [7]): 90 | Plant response rating, Bindweed, Field (field bindweed; [8]): 100 | Plant response rating, Bindweed, Field (field bindweed; [9]): 100 | Plant response rating, Bindweed, Field (field bindweed; [10]): 65 | Plant response rating, Bindweed, Field (field bindweed; [11]): 65

CCNC(=O)c1ccc(F)c(NC(=O)c2cn(C(C)(C)C)nc2CC)c1 [Compound 193]
Rice plant response rating (0 to 100 scale) (rice; 125 g ai/ha, 0 = no effect, 100 = complete control, preemergence): 80 | Plant response rating, Rice (rice; visual rating 0-100, 0 no effect, 100 complete control, preemergence): 100 | Plant response rating, Morningglory (morningglory; [1]): 20 | Plant response rating, Morningglory (morningglory; [12]): 20 | Plant response rating, Morningglory (morningglory; [13]): 100 | Morningglory plant response rating (morningglory; [3]): 100 | Plant response rating, Sandbur (southern sandbur; [4]): 20 | Plant response rating, Sandbur (southern sandbur; [5]): 10 | Plant response rating, Sandbur (southern sandbur; [6]): 0 | Plant response rating, Sandbur (southern sandbur; [7]): 10 | Plant response rating, Sandbur (southern sandbur; [8]): 20 | Plant response rating, Sandbur (southern sandbur; [9]): 60 | Plant response rating, Sandbur (southern sandbur; [10]): 0 | Plant response rating, Sandbur (southern sandbur; [11]): 0 | Plant response rating, Bindweed, Field (field bindweed; [4]): 50 | Plant response rating, Bindweed, Field (field bindweed; [5]): 50 | Plant response rating, Bindweed, Field (field bindweed; [6]): 50 | Plant response rating, Bindweed, Field (field bindweed; [7]): 50 | Plant response rating, Bindweed, Field (field bindweed; [8]): 80 | Plant response rating, Bindweed, Field (field bindweed; [9]): 85 | Plant response rating, Bindweed, Field (field bindweed; [11]): 20

CCc1nn(C(C)(C)C)cc1C(=O)Nc1cc(C(=O)N(C)C)ccc1F [Compound 222, N-[5-[(dimethylamino)carbonyl]-2-fluorophenyl]-1-(1,1-dimethylethyl)-3-ethyl-1H-pyrazole-4-carboxamide]
plant injury at 125 g/ha (rice; [14]): 90% | plant injury at 500 g/ha (rice; [15]): 100% | pest or weed control at 62 g/ha (morningglory; [1]): 0% | pest or weed control at 125 g/ha (morningglory; [2]): 20% | pest or weed control at 250 g/ha (morningglory; 250 g ai/ha, scale 0-100): 30% | pest or weed control at 500 g/ha (morningglory; [16]): 100% | Plant response rating, Sandbur (southern sandbur; [4]): 80 | Plant response rating, Sandbur (southern sandbur; [5]): 50 | Plant response rating, Sandbur (southern sandbur; [6]): 0 | Plant response rating, Sandbur (southern sandbur; [7]): 40 | Plant response rating, Sandbur (southern sandbur; [8]): 70 | Plant response rating, Sandbur (southern sandbur; [9]): 95 | Plant response rating, Sandbur (southern sandbur; [10]): 10 | Plant response rating, Sandbur (southern sandbur; [11]): 10 | Plant response rating, Bindweed, Field (field bindweed; [5]): 95 | Plant response rating, Bindweed, Field (field bindweed; [7]): 40 | Plant response rating, Bindweed, Field (field bindweed; [8]): 95 | Plant response rating, Bindweed, Field (field bindweed; [9]): 95 | Plant response rating, Bindweed, Field (field bindweed; [10]): 75 | Plant response rating, Bindweed, Field (field bindweed; [11]): 60

CCN1N=C(C(C)(C)C)CC1C(=O)Nc1cc(C(=O)N(C)C)ccc1F (centres unmarked) [Compound 268, N-[5-[(dimethylamino)carbonyl]-2-fluorophenyl]-3-(1,1-dimethylethyl)-1-ethyl-4,5-dihydro-1H-pyrazole-5-carboxamide]
plant injury at 125 g/ha (rice; [14]): 90% | plant injury at 500 g/ha (rice; [15]): 90% | pest or weed control at 62 g/ha (morningglory; [1]): 0% | pest or weed control at 125 g/ha (morningglory; [2]): 0% | pest or weed control at 250 g/ha (morningglory; 250 g ai/ha, scale 0-100): 5% | pest or weed control at 500 g/ha (morningglory; [16]): 5% | Plant response rating, Sandbur (southern sandbur; [6]): 10 | Plant response rating, Sandbur (southern sandbur; [7]): 70 | Plant response rating, Sandbur (southern sandbur; [8]): 100 | Plant response rating, Sandbur (southern sandbur; [9]): 100 | Plant response rating, Bindweed, Field (field bindweed; [6]): 0 | Plant response rating, Bindweed, Field (field bindweed; [7]): 20 | Plant response rating, Bindweed, Field (field bindweed; [8]): 40 | Plant response rating, Bindweed, Field (field bindweed; [9]): 70

C=CCNC(=O)c1cccc(NC(=O)c2cc(C(C)(C)C)nn2C)n1 [Compound 318]
Plant response rating (0 to 100 scale), Rice (rice; 125 g ai/ha, 0 is no effect, 100 is complete control, preemergence): 0 | Plant response rating, Rice (rice; visual rating, 0 = no effect, 100 = complete control, preemergence): 50 | Plant response rating, Morningglory (morningglory; [1]): 0 | Plant response rating, Morningglory (morningglory; [12]): 0 | Plant response rating, Morningglory (morningglory; [13]): 0 | Plant response rating, Morningglory (morningglory; [17]): 85 | Morningglory plant response rating (morningglory; [4]): 0 | Plant response rating, Morningglory (morningglory; [18]): 0 | Plant response rating, Morningglory (morningglory; [10]): 0 | Plant response rating, Morningglory (morningglory; [11]): 0 | Chickweed plant response rating (chickweed; [4]): 80 | Plant response rating, Chickweed (chickweed; [18]): 10 | Plant response rating, Chickweed (chickweed; [10]): 0 | Plant response rating, Chickweed (chickweed; [11]): 0

CCc1nn(C(C)C)nc1C(=O)Nc1cccc(C(=O)N2CCCCC2)c1 [Compound 385]
Plant response rating, Morningglory (morningglory; [1]): 15 | Plant response rating, Morningglory (morningglory; [13]): 65 | Plant response rating, Morningglory (morningglory; [17]): 100 | Plant response rating, Sandbur (southern sandbur; [6]): 0 | Plant response rating, Sandbur (southern sandbur; [7]): 10 | Plant response rating, Sandbur (southern sandbur; [8]): 40 | Plant response rating, Bindweed, Field (field bindweed; [6]): 10 | Plant response rating, Bindweed, Field (field bindweed; [7]): 10 | Plant response rating, Bindweed, Field (field bindweed; [8]): 20

CCc1nn(C(C)C)nc1C(=O)Nc1cccc(C(=O)N(C)CC)c1 [Compound 386]
Plant response rating, Morningglory (morningglory; [1]): 55 | Plant response rating (0 = no effect, 100 = complete control), Morningglory (morningglory; 125 g ai/ha, preemergence): 95 | Plant response rating, Morningglory (morningglory; [13]): 100 | Plant response rating, Morningglory (morningglory; [17]): 100 | Plant response rating, Sandbur (southern sandbur; [7]): 40 | Plant response rating, Sandbur (southern sandbur; [8]): 40 | Plant response rating, Bindweed, Field (field bindweed; [7]): 20 | Plant response rating, Bindweed, Field (field bindweed; [8]): 60
